Results from patent US12070505B2, “Targeted peptide-drug conjugates” (priority 2021, dated 2024).
Read-outs that look alike come from different tables or passages of the source.

Key:
[1] = system: uterine sarcoma cells (MES-SA/MX2)
Description: (§1) In Vitro Cytotoxicity Assay of Peptide-Drug Conjugates. […] In brief, CCRF-CEM cells were seeded at 50,000 cells in 0.1 mL per well in 98-well plates. In the case of other cell lines, the cells were seeded at 5,000 cells (0.1 mL per well in 96-well plates). […] Dox (5 μM) was used as a positive control, while water and cell culture medium were used as negative controls. The compounds were dissolved in water; water was used as a negative control to normalize the data. After the incubation period, MTS reagent (20 μL) was added to each well. The incubation was continued for 2 h. Cell viability was then determined by determination of the fluorescence intensity at 490 nm using a SpectraMax M2 microplate spectrophotometer. The percentage of cell viability was then calculated using the following equation: [(OD value of cells treated with the compound)−(OD value of culture medium)]/[(OD value of control cells)−(OD value of culture medium)]×100% (FIGS. 6-9).

CCRF-CEM cells [2] = settings: 3 h incubation; cited from earlier work
[3] = system: gastric adenocarcinoma cells (AGS); test: Cytotoxicity, MTS cell viability assay, AGS; settings: for reduction of cell survival: 72 h
Description: as §1

[4] = Cytotoxicity, MTS assay, normal kidney cells; settings: pig, LLC-PK1 kidney cells
Description: (§2) In Vitro Cytotoxicity Assay of Peptide-Drug Conjugates. The cytotoxicity of the compounds was determined by using human leukemia cell line (CCRF-CEM), human ovarian adenocarcinoma cells (SKOV-3) cells, kidney cell line (LLC-PK1), gastric adenocarcinoma cells (AGS), and heart/myocardium cells (H9C2) to evaluate the toxicity of the generated peptides according to a previously reported procedure (Rahman, A.; et al. Proc. Am. Assoc. Cancer Res. 26:2295-2299, 1985, which is incorporated herein by reference). In brief, CCRF-CEM cells were seeded at 50,000 cells in 0.1 mL per well in 98-well plates. In the case of other cell lines, the cells were seeded at 5,000 cells (0.1 mL per well in 96-well plates). The cells were seeded in medium (RPMI-1640 containing FBS (10%)), 24 h prior to the experiment. The compounds at different concentrations (10-50 μM) were added to each well in triplicate and incubated for 24 and 72 h at 37° C. in a humidified atmosphere of 5% CO2. Dox (5 μM) was used as a positive control, while water and cell culture medium were used as negative controls. The compounds were dissolved in water; water was used as a negative control to normalize the data. After the incubation period, MTS reagent (20 μL) was added to each well. The incubation was continued for 2 h. Cell viability was then determined by determination of the fluorescence intensity at 490 nm using a SpectraMax M2 microplate spectrophotometer.

LLC-PK1 kidney cells = test: Cytotoxicity, MTS assay, normal kidney cells; settings: for Cell Viability (%) after 24 h / Cell Viability (%) after 72 h: normal kidney LLC-PK1
Description: as §2

CCRF-CEM cells [5] = test: Cytotoxicity, MTS cell viability assay, CCRF-CEM
Description: as §1

SK-OV-3 cells = test: Cytotoxicity, MTS cell viability assay, SK-OV-3 (Example 1)
Description: as §1

[6] = Cytotoxicity, MTS assay, normal heart muscle cells (Example 1); settings: rat, H9C2 heart/myocardium cells
H9C2 cells = test: as above; settings: normal heart H9C2; 10 μM

## N=C(N)NCCC[C@@H]1NC(=O)[C@H](CCCCNC(=O)[C@H](Cc2c[nH]c3ccccc23)NC(=O)[C@H](Cc2c[nH]c3ccccc23)NC(=O)[C@H](Cc2c[nH]c3ccccc23)NC(=O)[C@H](Cc2c[nH]c3ccccc23)NC(=O)[C@H](Cc2c[nH]c3ccccc23)NC(=O)[C@H](Cc2c[nH]c3ccccc23)NC(=O)[C@H](Cc2c[nH]c3ccccc23)NC(=O)CCN)NC(=O)[C@H](CCCNC(=N)N)NC(=O)[C@H](CCCNC(=N)N)NC(=O)[C@H](CCCNC(=N)N)NC(=O)[C@H](CCCNC(=N)N)NC1=O [[R5K]W7A]
[1]; 10 μM
  Cell Viability (%) after 72 h: 110 ± 4%
[1]; 25 μM
  Cell Viability (%) after 72 h: 19 ± 2%
[1]; 25 μM, 72 h
  reduction of cell viability: ~80%
CCRF-CEM cells [2]
  fold improved uptake of F′-GpYEEI: approximately 48 fold
  fold improved uptake of emtricitabine (F′-FTC): ~27 fold
  fold improved uptake of stavudine (F′-d4T): ~36 fold
[3]; 5 μM
  Cell Viability (%) after 24 h: 103 ± 3%
  Cell Viability (%) after 72 h: 108 ± 1%
[3]; 10 μM
  Cell Viability (%) after 24 h: 104 ± 1%
  Cell Viability (%) after 72 h: 94 ± 2%
[3]; 25 μM
  Cell Viability (%) after 24 h: 105 ± 2%
  Cell Viability (%) after 72 h: 76 ± 1%
  reduction of cell survival: 24%
[3]; 50 μM
  Cell Viability (%) after 24 h: 79 ± 1%
  Cell Viability (%) after 72 h: 21 ± 1%
  reduction of cell survival: 87%
[3]; 5 and 10 μM, 24 and 72 h
  cytotoxicity: did not generate any significant cytotoxicity
[4]
  viability at 24 h, 5 µM: 94 ± 1%
  viability at 24 h, 10 µM: 86 ± 1%
  viability at 24 h, 25 µM: 82 ± 1%
  viability at 24 h, 50 µM: 71 ± 1%
  viability at 72 h, 5 µM: 98 ± 3%
  viability at 72 h, 10 µM: 100 ± 1%
  viability at 72 h, 25 µM: 97 ± 1%
  viability at 72 h, 50 µM: 97 ± 3%
LLC-PK1 kidney cells; LLC-PK1, 5-50 μM, 72 h
  cytotoxicity: did not generate any significant cytotoxicity
LLC-PK1 kidney cells; 5 μM
  Cell Viability (%) after 24 h: 94 ± 1%
  Cell Viability (%) after 72 h: 98 ± 3%
LLC-PK1 kidney cells; 10 μM
  Cell Viability (%) after 24 h: 86 ± 1%
  Cell Viability (%) after 72 h: 100 ± 1%
CCRF-CEM cells [5]; 5 μM
  Cell Viability (%) after 24 h: 90 ± 1%
  Cell Viability (%) after 72 h: 68 ± 4%
CCRF-CEM cells [5]; 10 μM
  Cell Viability (%) after 24 h: 68 ± 4%
  Cell Viability (%) after 72 h: 73 ± 6%
CCRF-CEM cells [5]; 25 μM
  Cell Viability (%) after 24 h: 32 ± 0%
  Cell Viability (%) after 72 h: 24 ± 9%
CCRF-CEM cells [5]; 25 μM, 24 h
  reduction of cell viability: 68%
CCRF-CEM cells [5]; concentrations other than 25 μM, even after 72 h
  cytotoxicity of peptide alone: 10-22%
SK-OV-3 cells; 5 μM
  Cell Viability (%) after 24 h: 79 ± 1%
  Cell Viability (%) after 72 h: 102 ± 8%
SK-OV-3 cells; 10 μM
  Cell Viability (%) after 24 h: 76 ± 0%
  Cell Viability (%) after 72 h: 101 ± 1%
SK-OV-3 cells; 25 μM
  Cell Viability (%) after 24 h: 70 ± 6%
  Cell Viability (%) after 72 h: 81 ± 3%
SK-OV-3 cells; 25 μM, 72 h
  reduction of cell viability / cytotoxicity: 19%
SK-OV-3 cells; 5, 10, and 25 μM, 24 h
  cytotoxicity of peptide alone: 21-30%
[6]
  viability at 72 h, 10 µM: 105 ± 3%
H9C2 cells
  Cell Viability (%) after 24 h: 101 ± 0%
